From patent US20260317319A1, “NOVEL ERGOLINES AND METHODS OF TREATING MOOD DISORDERS” (Gilgamesh Pharma Inc., priority 2023, published 2026)
Read-outs that look alike come from different tables or passages of the source.

Key:
5-HT1A receptor = biological target: T1, 5-HT1A receptor (Homo sapiens, UniProt P08908); assay: cell-based; conditions: CHO, agonist, Ca2+ flux, CHO cells with Gα15, max dose; read-out: 5-HT1A % Act @ Max Dose
T1 construct: expressed in transfected cells; host or cells: CHO cells, stably transfected
T1 sequence (P08908 1-422): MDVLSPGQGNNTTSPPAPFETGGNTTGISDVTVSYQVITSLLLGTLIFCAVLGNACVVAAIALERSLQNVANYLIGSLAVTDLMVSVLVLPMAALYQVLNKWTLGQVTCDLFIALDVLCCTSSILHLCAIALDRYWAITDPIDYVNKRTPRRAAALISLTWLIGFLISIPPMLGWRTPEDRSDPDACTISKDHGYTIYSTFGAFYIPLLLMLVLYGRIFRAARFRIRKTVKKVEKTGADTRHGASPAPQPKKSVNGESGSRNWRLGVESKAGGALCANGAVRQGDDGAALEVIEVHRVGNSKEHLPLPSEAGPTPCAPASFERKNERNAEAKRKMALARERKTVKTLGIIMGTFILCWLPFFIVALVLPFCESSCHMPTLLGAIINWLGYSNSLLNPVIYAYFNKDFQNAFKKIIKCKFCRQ
Method in brief: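 Using HEK293 lines for the 5-HT2 subtypes and Gα15-coupled CHO cells for 5-HT1A, compounds were tested as agonists. Fluorescent Ca2+ signal followed dye loading (Fluo-4 Direct, 2.5 mM final probenecid, 50 min, 37 °C).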

in vitro [1] = type: in vitro ADME, human; conditions: HLM 0.50 mg/mL, NADPH 1 mM, 1 μM compound, pH 7.4, 37° C., 60 min
5-HT2B receptor = biological target: T2, 5-HT2B receptor (Homo sapiens, UniProt P41595); assay: cell-based; type: cell-based; conditions: HEK293, agonist, Ca2+ flux, HEK293, max dose; read-out: 5-HT2B % Act @ Max Dose
T2 construct: expressed in transfected cells; host or cells: HEK293, stably transfected
T2 sequence (P41595 whole entry): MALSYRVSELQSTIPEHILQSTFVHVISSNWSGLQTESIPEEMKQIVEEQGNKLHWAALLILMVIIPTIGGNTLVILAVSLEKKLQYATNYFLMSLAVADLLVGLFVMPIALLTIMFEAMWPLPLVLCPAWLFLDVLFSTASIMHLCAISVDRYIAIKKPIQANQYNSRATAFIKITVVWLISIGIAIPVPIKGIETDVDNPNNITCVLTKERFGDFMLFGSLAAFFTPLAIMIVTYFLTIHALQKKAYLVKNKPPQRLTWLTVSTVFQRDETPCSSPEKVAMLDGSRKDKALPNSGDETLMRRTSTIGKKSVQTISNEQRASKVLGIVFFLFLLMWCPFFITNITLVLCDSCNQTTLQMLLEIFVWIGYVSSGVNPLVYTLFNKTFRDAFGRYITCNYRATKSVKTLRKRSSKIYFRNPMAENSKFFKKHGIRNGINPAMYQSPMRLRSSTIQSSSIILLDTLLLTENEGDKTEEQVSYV
Method in brief: (§1)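 FLIPR Tetra fluorescence read-out of calcium flux after compound addition. Receptor-expressing stable lines were used (HEK293 for 2A/2B; CHO with Gα15 for 1A), dye-loaded with Fluo-4 Direct and 2.5 mM final probenecid, 50 min at 37 °C.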

in vitro [2] = type: in vitro ADME, rat; conditions: RLM (male Sprague-Dawley) 0.50 mg/mL, NADPH 1 mM, 1 μM compound, pH 7.4, 37° C., 60 min
From the text: RLM Stability Pooled RLM from male Sprague-Dawley rats (Xenotech R1000) were used.

5-HT2A receptor [3] = biological target: T3, 5-HT2A receptor (Homo sapiens, UniProt P28223); assay: cell-based; type: cell-based; parameters: expressed in transfected cells; host or cells: HEK293, stably transfected; conditions: HEK293, agonist, Ca2+ flux, HEK293, max dose; read-out: 5-HT2A % Act @ Max Dose
T3 sequence (P28223 whole entry): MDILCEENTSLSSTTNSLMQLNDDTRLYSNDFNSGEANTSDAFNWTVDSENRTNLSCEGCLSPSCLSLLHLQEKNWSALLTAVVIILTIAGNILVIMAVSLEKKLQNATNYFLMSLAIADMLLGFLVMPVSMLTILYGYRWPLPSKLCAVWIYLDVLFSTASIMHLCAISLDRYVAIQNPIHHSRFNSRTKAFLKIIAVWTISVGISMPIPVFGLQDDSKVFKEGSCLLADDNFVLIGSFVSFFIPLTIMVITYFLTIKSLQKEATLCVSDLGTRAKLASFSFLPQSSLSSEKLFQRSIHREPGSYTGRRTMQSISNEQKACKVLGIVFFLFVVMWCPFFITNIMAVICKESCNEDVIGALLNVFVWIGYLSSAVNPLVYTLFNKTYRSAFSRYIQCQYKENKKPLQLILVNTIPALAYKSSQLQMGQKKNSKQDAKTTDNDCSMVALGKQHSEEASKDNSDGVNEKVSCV
Method in brief: as §1

5-HT1B receptor = biological target: T4, 5-HT1B receptor (Homo sapiens, UniProt P28222); assay: cAMP accumulation functional assay at 5-HT1B; type: cell-based; conditions: agonist, cAMP accumulation, max dose; read-out: 5-HT1B % Act @ Max Dose
T4 construct: expressed in transfected cells
T4 sequence (P28222 whole entry): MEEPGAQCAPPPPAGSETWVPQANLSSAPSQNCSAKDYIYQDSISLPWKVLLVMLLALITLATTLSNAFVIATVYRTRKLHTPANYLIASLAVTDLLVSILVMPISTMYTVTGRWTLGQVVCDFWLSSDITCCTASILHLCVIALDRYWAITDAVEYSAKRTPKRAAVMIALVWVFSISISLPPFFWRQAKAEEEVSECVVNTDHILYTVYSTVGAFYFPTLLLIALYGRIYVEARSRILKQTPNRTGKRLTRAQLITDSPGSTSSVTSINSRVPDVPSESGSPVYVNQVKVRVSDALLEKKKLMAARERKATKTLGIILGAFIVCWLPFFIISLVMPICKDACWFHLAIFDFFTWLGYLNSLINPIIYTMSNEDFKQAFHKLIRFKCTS
Method in brief: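 Stably transfected human 5-HT1B cells were incubated 60 min at room temperature, after which detection reagent was applied for another 60 min at RT. The read-out was cAMP accumulation, used as a measure of agonist activity.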

[4] = biological target: T5, Alpha1A adrenergic receptor (Homo sapiens, UniProt P35348); assay: Ca2+ flux functional assay at Alpha1A; type: cell-based; conditions: agonist, Ca2+ flux, max dose; read-out: Alpha 1A % Act @ Max Dose
T5 construct: expressed in transfected cells
T5 sequence (P35348 1-466): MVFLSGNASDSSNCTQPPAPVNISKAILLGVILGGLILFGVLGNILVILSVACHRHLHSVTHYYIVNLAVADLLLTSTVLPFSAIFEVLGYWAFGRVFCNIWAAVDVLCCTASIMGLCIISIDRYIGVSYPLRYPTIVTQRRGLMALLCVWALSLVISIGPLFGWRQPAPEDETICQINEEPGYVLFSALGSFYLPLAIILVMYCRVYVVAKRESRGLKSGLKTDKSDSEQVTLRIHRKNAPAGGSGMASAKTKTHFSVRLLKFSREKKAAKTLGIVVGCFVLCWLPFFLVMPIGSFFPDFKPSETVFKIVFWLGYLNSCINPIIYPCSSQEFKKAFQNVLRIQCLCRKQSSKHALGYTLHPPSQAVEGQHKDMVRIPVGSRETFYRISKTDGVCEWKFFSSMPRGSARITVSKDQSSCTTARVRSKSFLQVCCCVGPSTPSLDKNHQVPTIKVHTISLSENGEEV
Procedure: Disclosed compounds were tested for agonist activity at several adrenergic (Alpha1A and Alpha2A) and dopamine (D1 and D2) receptor subtypes using Ca^2+ flux functional assays, with the results summarized in Table 6. Selectivity for the 5-HT2A receptor over these other targets varied depending on the specific target and compound.
Functional Assays at Adrenergic and Dopamine Receptors. Agonist activity at Alpha1A, Alpha2A, D1, and D2 receptors was determined using a FLIPR Ca^2+ flux assay at WuXi AppTec (Hong Kong) Limited according to their standard protocols. Briefly, stably transfected cells expressing the receptor of interest were grown and plated in a 384 well plate and incubated at 37° C. and 5% CO2 overnight. A solution of 250 mM probenecid in 1 mL FLIPR assay buffer was prepared fresh. This was combined with a fluorescent dye (Fluo-4 Direct™) to make a final assay concentration of 2.5 mM. Compounds were diluted 1:3.16 for 10 points and 750 nL was added to a 384 well compound plate using ECHO along with 30 μL assay buffer. The fluorescent dye was then added to the assay plate along with assay buffer to a final volume of 40 μL. The cell plate was incubated for 50 min at 37° C. and 5% CO2 and placed into the FLIPR Tetra along with the compound plate. 10 μL of references and compounds were then transferred from the compound plate into the cell plate and the fluorescent signal was read.

in vitro [5] = type: in vitro ADME, mouse; conditions: MLM (male CD-1) 0.50 mg/mL, NADPH 1 mM, 1 μM compound, pH 7.4, 37° C., 60 min
From the text: MLM Stability Pooled MLM from male CD-1 mice (BIOIVT M00501) were used.

in vitro [6] = type: in vitro ADME, human; conditions: for metabolised: human, microsomes, role: substrate, metabolite 83 formed in HLM, read-out: Metabolite Formation (percent formation of metabolite 83)
Procedure: The ability of deuteration in compound 68 to attenuate formation of metabolite 83 compared to the same transformation of the non-deuterated compound 18 was also determined.
HLM Stability. Pooled HLM from adult male and female donors (Corning 452117) were used.

5-HT2A receptor [7] = biological target: T3, 5-HT2A receptor; assay: biochemical; type: binding; parameters: expressed in transfected cells; host or cells: HEK293, stably transfected; conditions: [3H]ketanserin 1 nM; HEK293 stable cell line; 1 h, 25 °C
Method in brief: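 Values reflect [^3H]ketanserin binding competition. Assay conditions were adapted from the literature.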

Sprague Dawley rats = assay: Forced swim test (FST) in rats; type: in vivo, rat; conditions: rat FST, dose 20 mg/kg, positive control; average of 3 independent experiments
Procedure: Compound 1 induced antidepressant-like effects in the forced swim test (FST) in rats with a 23.5-h pre-treatment time (FIG. 2).
Animals. Male Sprague Dawley rats, aged 9-10 weeks, were used in this experiment. Animals were housed in groups of 2 under controlled temperature (22±3° C.) and relative humidity (30-70%) conditions, with 12-hour light/dark cycles, and with ad libitum food and water. This study was carried out in strict accordance with the requirements of the Committee for the Purpose of Control and Supervision of Experiments on Animals (CPCSEA), India. All efforts were made to minimize suffering.
Forced Swim Test (FST). […] Rats were handled for about 2 min daily for the 5 days prior to the beginning of the experimental procedure. On the first day of the experiment (i.e., Day 0), post randomization, training swim sessions (Swim 1) were conducted between 12:00 and 18:00 h with all animals by placing rats in individual glass cylinders (46 cm tall×20 cm in diameter) containing 23-25° C. water 30 cm deep for 15 minutes. At the conclusion of Swim 1, animals were dried with paper towels, placed in heated drying cages for 15 minutes, and then returned to their home cages. Animals were then administered the appropriate drug or vehicle treatment(s), as described above. For clarity, a compound administration time of 23.5 h before Swim 2 means 0.5 h after the start of Swim 1 and 0.25 h after the completion of Swim 1 (i.e., immediately after return to the home cage). On Day 1 (i.e., 24 h after start of Swim 1), animals performed the test swim (Swim 2) for a period of 5 min but otherwise under the same conditions as Swim 1. During all swim sessions, the water was changed between each animal.
Behavioral scoring was conducted by observers who were blind to the treatment groups. Animals were continuously observed during Swim 2 and the total time spent engaging in the following behaviors was recorded: immobile, swimming, and climbing. A rat was judged to be immobile when it remained floating in the water without struggling and was making only those movements necessary to keep its head above water. A rat was judged to be swimming when it made active swimming motions, more than necessary to merely maintain its head above water (e.g., moving around in the cylinder). A rat was judged to be climbing when it made active movements with its forepaws in and out of the water, usually directed against the walls.
Statistical Analysis. The data points shown represent the mean±standard error of the mean (SEM). Analysis was performed using GraphPad Prism 6. Comparisons between groups were performed using the one-way analysis of variance (ANOVA), followed by Dunnett's test for comparisons to vehicle.
Additional disclosed compounds were tested in the forced swim test (FST) in rats according to the procedure described in Example 58 (compounds 18 and 19 administered in 10% DMSO in saline).

## CCN(CC)C(=O)[C@@H]1C=C2c3cccc4[nH]cc(c34)C[C@H]2N(CC2CC2)C1 [Compound 13, (6aR,9R)—N,N-diethyl-7-(cyclopropylmethyl)-4,6,6a,7,8,9-hexahydroindolo[4,3-fg]quinoline-9-carboxamide]
5-HT1A receptor
  Emax: 83.1%
In vitro [1]
  half-life (t1/2): 21.1 min
5-HT2B receptor
  Emax: 91.8%
In vitro [2]
  half-life (t1/2): 27.7 min
5-HT2A receptor [3]
  Emax: 92.6%
5-HT1B receptor
  Emax: 90.4%
[4]
  Emax: 80.8%
In vitro [5]
  half-life (t1/2): 3.7 min

## [2H]C([2H])(c1cccc(OC)c1)N1C[C@H](C(=O)N(CC)CC)C=C2c3cccc4[nH]cc(c34)C[C@H]21 [Compound 68, (6aR,9R)—N,N-diethyl-7-((3-methoxyphenyl)methyl-d2)-4,6,6a,7,8,9-hexahydroindolo[4,3-fg]quinoline-9-carboxamide]
In vitro [6]; formation of 83 from 68 compared to formation from 18
  formation of metabolite 83: substantially attenuated compared to formation of 83 from 18
In vitro [6]; T = 0
  metabolised: 0.1%
In vitro [6]; T = 5
  metabolised: 2.9%
In vitro [6]; T = 15
  metabolised: 4.3%
In vitro [6]; T = 30
  metabolised: 5.7%
In vitro [6]; T = 45
  metabolised: 5.8%
In vitro [6]; T = 60
  metabolised: 6.2%
In vitro [1]; human, microsomes, read-out: Intrinsic clearance (Clint)
  microsomal CLint: 130 µL/min/mg
In vitro [1]; human, microsomes, read-out: half-life (t1/2)
  half-life: 10.6 min
In vitro [2]; rat, microsomes, read-out: Intrinsic clearance (Clint)
  microsomal CLint: 360 µL/min/mg
In vitro [2]; rat, microsomes, read-out: half-life (t1/2)
  half-life: 3.9 min
5-HT2A receptor [7]
  Ki: 3.02 nM
In vitro [5]; mouse, microsomes, read-out: Intrinsic clearance (Clint)
  microsomal CLint: 436 µL/min/mg
In vitro [5]; mouse, microsomes, read-out: half-life (t1/2)
  half-life: 3.2 min

## CNCCCN1c2ccccc2CCc2ccccc21 [Desipramine, desipramine, reference compound]
Sprague Dawley rats
  Time Immobile: 60.93 s
